Reference: patent publication US12509423B2, “Compound, aldehyde dehydrogenase 2 activating agent, pharmaceutical composition, and therapeutic and/or prophylactic drug” (Alchemedicine, Inc., priority 2020, dated 2025)

What was measured:
[1] = molecular target: T1, human recombinant ALDH2 enzyme (Homo sapiens, UniProt P05091); test: ALDH2 activation effect (acetaldehyde oxidation rate, PicoProbe Aldehyde dehydrogenase Activity Assay Kit); assay type: biochemical
T1 construct: purchased BioVision Inc
T1 sequence (P05091 18-517): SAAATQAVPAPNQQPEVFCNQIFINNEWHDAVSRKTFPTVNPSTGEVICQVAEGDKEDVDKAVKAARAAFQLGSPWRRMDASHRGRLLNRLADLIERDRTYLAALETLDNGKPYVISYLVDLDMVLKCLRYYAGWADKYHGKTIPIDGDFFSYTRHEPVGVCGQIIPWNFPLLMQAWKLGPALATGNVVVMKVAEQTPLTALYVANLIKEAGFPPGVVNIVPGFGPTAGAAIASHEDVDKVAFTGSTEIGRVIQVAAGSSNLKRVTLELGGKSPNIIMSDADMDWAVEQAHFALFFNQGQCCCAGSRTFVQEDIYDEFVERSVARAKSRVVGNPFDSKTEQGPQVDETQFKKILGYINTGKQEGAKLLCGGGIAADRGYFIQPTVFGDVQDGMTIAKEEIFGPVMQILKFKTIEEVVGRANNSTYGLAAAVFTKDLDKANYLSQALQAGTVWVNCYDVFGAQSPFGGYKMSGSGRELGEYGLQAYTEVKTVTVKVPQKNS
Description: The activation effect of each test compound on the acetaldehyde oxidation rate of ALDH2 was measured with the following method. A test was conducted by using a commercially available PicoProbe™ Aldehyde dehydrogenase Activity Assay Kit (manufactured by BioVision Inc.) with reference to an instruction attached to the product under the following conditions. To each well of a 384-well plate, the following (1) to (3) were sequentially added with a pipette: • (1) 10 μL of solution obtained by dissolving and diluting a human recombinant ALDH2 enzyme (manufactured by BioVision Inc.) with ALDH assay Buffer to reach 3-μg/mL; • (2) 10 μL of 30 μM or 90 μM test compound solution (with 3% DMSO) prepared by using ALDH assay Buffer; and • (3) 10 μL of Reaction mix composed with ratio of 8.6 μL of ALDH assay Buffer, 0.6 μL of PicoProbe, 0.3 μL of Substrate Mix, and 1.5 μL of Acetaldehyde.
Before addition of (3), incubation was performed at room temperature for 5 minutes. After addition of (3), fluorescence intensity was measured at room temperature every 2.5 minutes over a period of 180 minutes by using an EnSight (manufactured by PerkinElmer Inc.). Wavelengths of 535 nm and 587 nm were used for fluorescence intensities of excitation and -emission, respectively.

[2] = Metabolic stability with human hepatic microsomes; assay type: in vitro ADME; settings: human hepatic microsomes 0.1 mg protein/mL, 0.1 μmol/L test compound, after 30 minutes, 37° C.
Description: The specific method is as follows.
• (1) Fifty microliter-portions were taken from 0.2 μmol/L test compound diluted with β-NADPH solution. • (2) Fifty microliters of 0.2 mg protein/mL human hepatic microsome solution was added to each (except for a sample with a reaction time of 0 minutes). • (3) Incubation was performed with shaking at 37° C. for 30 minutes (concentration in reaction sample: 0.1 μmol/L test compound, 0.1 mg protein/mL human hepatic microsome). • (4) After incubation, 400 μL of methanol was added to terminate the reaction. • (5) To the sample with a reaction time of 0 minutes, 50 μL of 0.2 mg protein/mL hepatic microsome solution was added. • (6) Each of the samples from (4) and (5) was left to stand at −20° C. for 30 minutes or longer, and then centrifuged at 4° C. and 3,000 rpm for approximately 10 minutes. • (7) The supernatant was subjected to measurement with LC/MS/MS, and, based on the peak area obtained for the unchanged form, the residual rate (%) of the unchanged form was calculated as that for the case with an incubation time of 0 minutes was assumed as 100%.

[3] = molecular target: hERG (human Ether-a-go-go Related Gene) channel (Homo sapiens, UniProt Q12809); test: hERG channel inhibition effect (whole-cell patch clamp); assay type: cell-based; settings: 22 to 25° C.
hERG (human Ether-a-go-go Related Gene) channel, sequence (Q12809 whole entry): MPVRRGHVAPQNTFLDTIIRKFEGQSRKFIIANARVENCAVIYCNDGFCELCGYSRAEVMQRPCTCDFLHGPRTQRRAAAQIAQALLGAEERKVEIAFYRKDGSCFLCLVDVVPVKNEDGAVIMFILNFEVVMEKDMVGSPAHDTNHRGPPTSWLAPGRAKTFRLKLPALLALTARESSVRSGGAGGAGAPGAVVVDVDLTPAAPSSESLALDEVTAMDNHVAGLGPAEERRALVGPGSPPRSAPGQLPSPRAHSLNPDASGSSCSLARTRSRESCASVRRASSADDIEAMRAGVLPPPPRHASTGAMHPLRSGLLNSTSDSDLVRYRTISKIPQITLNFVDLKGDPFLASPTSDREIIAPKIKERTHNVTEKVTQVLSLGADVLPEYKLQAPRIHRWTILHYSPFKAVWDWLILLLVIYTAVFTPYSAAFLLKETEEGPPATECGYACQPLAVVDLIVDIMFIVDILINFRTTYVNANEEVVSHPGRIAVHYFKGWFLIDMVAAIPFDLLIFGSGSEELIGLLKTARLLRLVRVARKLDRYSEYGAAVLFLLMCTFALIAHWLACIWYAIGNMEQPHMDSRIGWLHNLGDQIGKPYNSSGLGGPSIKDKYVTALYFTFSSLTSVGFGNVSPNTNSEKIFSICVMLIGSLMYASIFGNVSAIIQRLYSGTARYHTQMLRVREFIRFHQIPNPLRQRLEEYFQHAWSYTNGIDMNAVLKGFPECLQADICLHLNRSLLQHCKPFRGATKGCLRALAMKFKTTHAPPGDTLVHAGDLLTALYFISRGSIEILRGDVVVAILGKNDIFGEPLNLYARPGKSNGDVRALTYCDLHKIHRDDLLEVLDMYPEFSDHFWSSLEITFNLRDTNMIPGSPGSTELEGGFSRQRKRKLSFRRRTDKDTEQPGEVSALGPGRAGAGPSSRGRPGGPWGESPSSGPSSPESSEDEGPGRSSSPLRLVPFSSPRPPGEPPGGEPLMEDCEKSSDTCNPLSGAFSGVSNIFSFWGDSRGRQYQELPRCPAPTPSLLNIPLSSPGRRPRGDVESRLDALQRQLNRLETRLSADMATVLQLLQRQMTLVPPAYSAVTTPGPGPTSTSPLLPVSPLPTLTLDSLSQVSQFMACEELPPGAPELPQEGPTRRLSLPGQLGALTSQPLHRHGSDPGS
Description: The hERG (human Ether-a-go-go Related Gene) channel inhibition effect of each test compound was examined with the following patch clamp method.
Under a fixed potential, an hERG current that passed through the whole cell membrane was recorded with the whole-cell patch clamp method.
To confirm the hERG current, the holding potential was set to −80 mV, and depolarizing pulses at −50 mV for 110 msec and at 20 mV for 4 sec and a subsequent repolarizing pulse at −50 mV for 2 sec were provided at a frequency of once per 15 seconds. After the stabilization of the hERG tail current obtained was confirmed, an application was initiated. The pulses were continuously provided also during the application.
The sampling frequency was set to 5 kHz, and Lowpass Filter was applied at 2 kHz. […]
hERG currents were measured by using an amplifier for patch clamping (Axopatch 200B, Molecular Devices, LLC), and electric signals obtained were recorded in a computer via recording/analysis software for patch clamping (pCLAMP 10, Molecular Devices, LLC).
The maximum tail current value was determined on the basis of the current value with the depolarizing pulse at −50 mV for 110 msec, and the change rate (suppression rate) 5 minutes after the initiation of application to the maximum tail current value before application of the test compound was calculated.

[4] = Metabolic stability with mouse hepatic microsomes; assay type: in vitro ADME; settings: for Residual rate (%) of unchanged form: mouse hepatic microsomes, after 30 minutes, 37° C., NADPH
Description: Metabolic stability in mouse hepatic microsomes was evaluated with the following method.
• (1) Mouse hepatic microsomes: 20 mg/mL • (2) Test compound: 1.1 mM DMSO solution • (3) Potassium phosphate buffer solution: 66.7 mM (pH 7.4) • (4) NADPH solution: 10 mM in potassium phosphate buffer solution • (5) Quenching solution: 0.5% formic acid-acetonitrile solution with warfarin as internal standard substance 2. Method
Into a propylene tube, 971.5 μL of the potassium phosphate buffer solution and 27.5 μL of the mouse hepatic microsomes were put and suspended. Thereto, 1 μL of a test compound was added, and 180 μL was taken from this mixture and transferred into another tube. The mixture was preincubated at 37° C. for 5 minutes, and 20 μL of the NADPH solution (for the case with an incubation time of 30 minutes) or 20 μL of the potassium phosphate buffer solution (for the case with an incubation time of 0 minutes) was then added thereto. After incubation, 200 μL of the quenching solution was added to terminate the reaction. Subsequently, centrifugation was performed at 3220×g for 20 minutes, and the concentration of the unchanged form of the test compound in 200 μL of the supernatant was measured with LC-MS/MS. On the basis of the peak area obtained for the unchanged form, the residual rate (%) of the unchanged form was calculated as that for the case with an incubation time of 0 minutes was assumed as 100%.

[5] = concentration of test compound 10 μM
[6] = concentration of test compound 30 μM

acetaldehyde oxidation rate (rate with no test compound assumed as 100%) [1, 5] [%] | acetaldehyde oxidation rate (rate with no test compound assumed as 100%) [1, 6] [%] | Residual rate (%) of unchanged form [2] [%] | metabolic stability in mouse hepatic microsomes (in words) [4] | Residual rate (%) of unchanged form [4] [%] | Structure (SMILES) | IC50 [3] [µM]
 |  |  |  | <1 | COCc1ccc(CNC(=O)c2c(F)cccc2Br)cc1F [Comparative Example 4, reference compound] | 
 |  |  |  | <1 | COCc1ccc(CNC(=O)c2c(F)cccc2Cl)cc1F [Comparative Example 5, reference compound] | 
 |  |  |  | 1 | COCc1ccc(CNC(=O)c2c(F)cccc2F)cc1F [Comparative Example 6, reference compound] | 
124 | 146 | 72 | confirmed to have stability | 52 | CC(O)c1cccnc1-c1ccc(F)c(C(=O)NCc2ccc(COC(F)F)c(F)c2)c1 (stereo not drawn) [Example 5, N-(4-((Difluoromethoxy)methyl)-3-fluorobenzyl)-2-fluoro-5-(3-(1-hydroxyethyl)pyridin-2-yl)benzamide] | 
139 | 161 | 75 | confirmed to have stability | 24 | COCc1ccc(CNC(=O)c2cc(-c3ncccc3COC)ccc2F)cc1F [Example 6, 2-Fluoro-N-(3-fluoro-4-(methoxymethyl)benzyl)-5-(3-(methoxymethyl)pyridin-2-yl)benzamide] | 
157 | 170 |  |  | 74 | COCc1ccc(CNC(=O)c2cc(-c3n[nH]cc3CO)ccc2Cl)cc1F [Example 7, 2-Chloro-N-(3-fluoro-4-(methoxymethyl)benzyl)-5-(4-(hydroxymethyl)-1H-pyrazol-3-yl)benzamide] | 

Continued, molecule first:

Structure (SMILES) | acetaldehyde oxidation rate (rate with no test compound assumed as 100%) [1, 5] [%] | acetaldehyde oxidation rate (rate with no test compound assumed as 100%) [1, 6] [%] | Residual rate (%) of unchanged form [2] [%] | metabolic stability in mouse hepatic microsomes (in words) [4] | Residual rate (%) of unchanged form [4] [%] | IC50 [3] [µM]
COCc1ccc(CNC(=O)c2cc(-c3ncccc3C(C)O)ccc2F)cc1F (racemic) [Example 2, Racemic 2-fluoro-N-(3-fluoro-4-(methoxymethyl)benzyl)-5-(3-(1-hydroxyethyl)pyridin-2-yl)benzamide] | 127 | 166 | 87 | confirmed to have stability | 68 | > 30
COCc1ccc(CNC(=O)c2cc(-c3ncccc3C(C)O)ccc2F)cc1F (single isomer, unassigned) [Example 3, Chiral 2-fluoro-N-(3-fluoro-4-(methoxymethyl)benzyl)-5-(3-(1-hydroxyethyl)pyridin-2-yl)benzamide] | 137 | 176 |  |  | 64 | 
COCc1ccc(CNC(=O)c2cc(-c3ncccc3C(C)O)ccc2F)cc1F (single isomer, unassigned) [Example 4, Chiral 2-fluoro-N-(3-fluoro-4-(methoxymethyl)benzyl)-5-(3-(1-hydroxyethyl)pyridin-2-yl)benzamide] | 131 | 155 |  |  | 60 | 
O=C(NCc1ccc2c(c1)OCO2)c1c(Cl)cccc1Cl [Comparative Example 1, reference compound] | 149 | 176 |  |  | <1 | 
COc1ccc(CNC(=O)c2cc(-c3ncccc3CO)ccc2OCC2CC2)cc1F [Comparative Example 2, reference compound] |  |  |  |  | 6 | 
COCc1ccc(CNC(=O)c2c(Cl)cccc2Cl)cc1F [Comparative Example 3, reference compound] |  |  |  |  | 1 | 
